# The supplement of paper PMC9151546
# Assays:
# [1] = test system: CHO-K1; experiment: benchmark concentration for 60% increase in hypodiploid frequency (BMC60); higher = less potent aneugen; settings: S9 metabolic activation: with S9
# Procedure, shortened: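 Without metabolic activation, CHO cells were exposed for 24 h at 37 °C to 19 concentrations (4.50–200 µM, 1% DMSO vehicle), and with Aroclor 1254-induced rat liver S9 they were exposed for 3–4 h and then allowed 24 h recovery. Hypodiploid nuclei were quantified by flow cytometry, excluding concentrations with relative survival under 40% and defining the benchmark response as a 60% rise over DMSO control. Hill and exponential model families in PROAST were used to fit the benchmark concentration.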
# [2] = test system: CHO-K1; experiment: benchmark concentration for 30% increase in micronucleus frequency (BMC30); higher = less potent clastogen; settings: S9 metabolic activation: with S9
# Experimental: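 Benchmark concentration modelling (PROAST, Hill/exponential model families) of the 19-concentration flow-cytometric micronucleus assay in CHO-K1 cells, with and without rat liver S9. Only non-cytotoxic and adequate (relative survival >=40%) concentrations were used. BMR was a 30% increase in %MN (BMC30) or a 60% increase in %hypodiploid (BMC60) over control.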
smiles,measurement,setting,value
CC(C)(C)c1cc(O)ccc1O [tert-Butylhydroquinone],benchmark concentration,[1],23 µM
same,benchmark concentration,[2],22 µM
